In paper PMC6225228, “Design, Synthesis and Evaluation of N-pyrazinylbenzamides as Potential Antimycobacterial Agents” (Molecules : A Journal of Synthetic Chemistry and Natural …, 2018):
Values after ≈ are worked out from the molar mass of the structure shown. Read-outs that look alike come from different tables or passages of the source.

Columns and labels:
[1] = test system: Candida glabrata 20/I; assay: Antifungal microdilution broth, CG; type: cell-based; conditions: Nakaseomyces glabratus, 20/I, read-out: MIC CG
[2] = test system: Escherichia coli CCM 4517; assay: Antibacterial microdilution broth, EC; type: cell-based; conditions: Escherichia coli, read-out: MIC EC
[3] = test system: Mycobacterium tuberculosis H37Rv CNCTC My 331/88 (ATCC 27294); assay: Antimycobacterial microdilution MABA, M. tuberculosis; type: cell-based; conditions: Mycobacterium tuberculosis, read-out: Mtb H37Rv ATCC 27294 MIC, Middlebrook 7H9 with OADC growth supplement, pH = 6.6, MABA
[4] = test system: Staphylococcus aureus H 5996/08 methicillin resistant; assay: microbe, parasite or virus in culture; type: cell-based; conditions: Staphylococcus aureus, MRSA, read-out: MIC MRSA
[5] = test system: Staphylococcus aureus CCM 4516/08; assay: Antibacterial microdilution broth, SA; type: cell-based; conditions: Staphylococcus aureus
[6] = test system: Aspergillus fumigatus 231; assay: Antifungal microdilution broth, AF; type: cell-based; conditions: read-out: MIC AF
[7] = test system: Candida krusei E28; assay: Antifungal microdilution broth, CK; type: cell-based; conditions: Pichia kudriavzevii, read-out: MIC CK
[8] = test system: Trichosporon asahii 1188; assay: Antifungal microdilution broth, TA; type: cell-based; conditions: read-out: MIC TA
[9] = test system: Trichophyton interdigitale 445; assay: Antifungal microdilution broth, TI; type: cell-based; conditions: read-out: MIC TI
[10] = test system: Mycobacterium smegmatis CCM 4622 (ATCC 607); assay: Antimycobacterial microdilution, M. smegmatis; type: cell-based; conditions: Mycolicibacterium smegmatis, read-out: M. smeg. ATCC 607 MIC
[11] = test system: Candida albicans ATCC 44859; assay: Antifungal microdilution broth, CA; type: cell-based; conditions: Candida albicans, read-out: MIC CA
[12] = test system: Enterococcus sp. J 14365/08; assay: Antibacterial microdilution broth, EF; type: cell-based; conditions: Enterococcus, read-out: MIC EF
[13] = test system: Lichtheimia corymbifera 272; assay: Antifungal microdilution broth, LC; type: cell-based; conditions: read-out: MIC LC
[14] = test system: M. kansasii CNCTC My 235/80 (ATCC 12478); assay: Antimycobacterial microdilution MABA, M. kansasii; type: cell-based, Mycobacterium kansasii; conditions: Mycobacterium kansasii, ATCC12478, pH 6.6, read-out: M. kans. ATCC 12478 MIC, Middlebrook 7H9 with OADC, pH 6.6, MABA
[15] = test system: Staphylococcus epidermidis H 6966/08; assay: Antibacterial microdilution broth, SE; type: cell-based; conditions: Staphylococcus epidermidis, read-out: MIC SE
[16] = test system: Pseudomonas aeruginosa CCM 1961; assay: Antibacterial microdilution broth, PA; type: cell-based; conditions: Pseudomonas aeruginosa, read-out: MIC PA
[17] = test system: Candida tropicalis 156; assay: Antifungal microdilution broth, CT; type: cell-based; conditions: read-out: MIC CT
[18] = test system: M. avium ssp. avium CNCTC My 80/72 (ATCC 15769); assay: Antimycobacterial microdilution MABA, M. avium; type: cell-based, Mycobacterium avium; conditions: for MIC: Mycobacterium avium, ATCC15769, pH 6.6, read-out: M. avium ATCC 15769 MIC
[19] = CCM4516, 24 h, read-out: MIC SA, 24 h
[20] = CCM4516, 48 h, read-out: MIC SA, 48 h
[21] = Aspergillus fumigatus, 231, 24 h
[22] = Aspergillus fumigatus, 231, 48 h
[23] = Trichosporon asahii, 1188, 24 h
[24] = Trichosporon asahii, 1188, 48 h
[25] = Trichophyton interdigitale, 445, 72 h
[26] = Trichophyton interdigitale, 445, 120 h
[27] = Lichtheimia corymbifera, 272, 24 h
[28] = Lichtheimia corymbifera, 272, 48 h

## O=C(Nc1cnccn1)c1ccc(Cl)cc1 [Compound 1l]
[1]; 24 h
  MIC: > 125 µM
[1]; 48 h
  MIC: > 125 µM
[2]; CCM4517, 24 h
  MIC: > 125 µM
[2]; CCM4517, 48 h
  MIC: > 125 µM
other
  melting point: 182.6 to 184.3 °C
[3]
  MIC: 50 µg/mL (≈ 214 µM)
[4]; 24 h
  MIC: > 125 µM
[4]; 48 h
  MIC: > 125 µM
[5]; [19]
  MIC: > 125 µM
[5]; [20]
  MIC: > 125 µM
[6]; [21]
  MIC: > 125 µM
[6]; [22]
  MIC: > 125 µM
[7]; E28, 24 h
  MIC: > 125 µM
[7]; E28, 48 h
  MIC: > 125 µM
[8]; [23]
  MIC: > 125 µM
[8]; [24]
  MIC: > 125 µM
[9]; [25]
  MIC: > 125 µM
[9]; [26]
  MIC: > 125 µM
[10]
  MIC: ≥ 500 µg/mL
[11]; ATCC44859, 24 h
  MIC: > 125 µM
[11]; ATCC44859, 48 h
  MIC: > 125 µM
[12]; SP.J14365/08, 24 h
  MIC: > 125 µM
[12]; SP.J14365/08, 48 h
  MIC: > 125 µM
[13]; [27]
  MIC: > 125 µM
[13]; [28]
  MIC: > 125 µM
[14]
  MIC: 50 µg/mL (≈ 214 µM)
[15]; H6966/08, 24 h
  MIC: > 125 µM
[15]; H6966/08, 48 h
  MIC: > 125 µM
[16]; CCM1961, 72 h
  MIC: > 125 µM
[16]; CCM1961, 120 h
  MIC: > 125 µM
[17]; Candida tropicalis, 156, 24 h
  MIC: > 125 µM
[17]; Candida tropicalis, 156, 48 h
  MIC: > 125 µM
[18]; Middlebrook 7H9 with OADC, pH 6.6, MABA
  M. avium ATCC 15769 MIC: >100 µg/mL
[18]
  MIC: > 100 µg/mL

## COc1ccccc1C(=O)Nc1cnc(Cl)cn1 [Compound 2e]
[1]; 24 h
  MIC: > 125 µM
[1]; 48 h
  MIC: > 125 µM
[2]; CCM4517, 24 h
  MIC: > 125 µM
[2]; CCM4517, 48 h
  MIC: > 125 µM
other
  melting point: 141.2 to 142 °C
[3]
  MIC: > 100 µg/mL
[4]; 24 h
  MIC: > 125 µM
[4]; 48 h
  MIC: > 125 µM
[5]; [19]
  MIC: > 125 µM
[5]; [20]
  MIC: > 125 µM
[5]; CCM4516, read-out: MIC against S. aureus, time not stated
  MIC: > 125 µM
[6]; [21]
  MIC: > 125 µM
[6]; [22]
  MIC: > 125 µM
[7]; E28, 24 h
  MIC: > 125 µM
[7]; E28, 48 h
  MIC: > 125 µM
[8]; [23]
  MIC: > 125 µM
[8]; [24]
  MIC: > 125 µM
[9]; [25]
  MIC: > 125 µM
[9]; [26]
  MIC: > 125 µM
[10]
  MIC: ≥ 500 µg/mL
[11]; ATCC44859, 24 h
  MIC: > 125 µM
[11]; ATCC44859, 48 h
  MIC: > 125 µM
[12]; SP.J14365/08, 24 h
  MIC: > 125 µM
[12]; SP.J14365/08, 48 h
  MIC: > 125 µM
[13]; [27]
  MIC: > 125 µM
[13]; [28]
  MIC: > 125 µM
[14]
  MIC: > 100 µg/mL
[15]; H6966/08, 24 h
  MIC: > 125 µM
[15]; H6966/08, 48 h
  MIC: > 125 µM
[16]; CCM1961, 72 h
  MIC: > 125 µM
[16]; CCM1961, 120 h
  MIC: > 125 µM
[17]; Candida tropicalis, 156, 24 h
  MIC: > 125 µM
[17]; Candida tropicalis, 156, 48 h
  MIC: > 125 µM
[18]
  MIC: > 100 µg/mL

## CC(=O)Oc1cccc(C(=O)Nc2cnccn2)c1 [Compound 1c-Ac]
[1]; 24 h
  MIC: > 500 µM
[1]; 48 h
  MIC: > 500 µM
[2]; CCM4517, 24 h
  MIC: > 500 µM
[2]; CCM4517, 48 h
  MIC: > 500 µM
other
  melting point: 168.4 to 169.5 °C
[3]
  MIC: > 100 µg/mL
[4]; 24 h
  MIC: > 500 µM
[4]; 48 h
  MIC: > 500 µM
[5]; [19]
  MIC: > 500 µM
[5]; [20]
  MIC: > 500 µM
[6]; [21]
  MIC: > 500 µM
[6]; [22]
  MIC: > 500 µM
[7]; E28, 24 h
  MIC: > 500 µM
[7]; E28, 48 h
  MIC: > 500 µM
[8]; [23]
  MIC: > 500 µM
[8]; [24]
  MIC: > 500 µM
[9]; [25]
  MIC: > 500 µM
[9]; [26]
  MIC: > 500 µM
[10]
  MIC: ≥ 500 µg/mL
[11]; ATCC44859, 24 h
  MIC: > 500 µM
[11]; ATCC44859, 48 h
  MIC: > 500 µM
[12]; SP.J14365/08, 24 h
  MIC: > 500 µM
[12]; SP.J14365/08, 48 h
  MIC: > 500 µM
[13]; [27]
  MIC: > 500 µM
[13]; [28]
  MIC: > 500 µM
[14]
  MIC: > 100 µg/mL
[15]; H6966/08, 24 h
  MIC: > 500 µM
[15]; H6966/08, 48 h
  MIC: > 500 µM
[16]; CCM1961, 72 h
  MIC: > 500 µM
[16]; CCM1961, 120 h
  MIC: > 500 µM
[17]; Candida tropicalis, 156, 24 h
  MIC: > 500 µM
[17]; Candida tropicalis, 156, 48 h
  MIC: > 500 µM
[18]
  MIC: > 100 µg/mL

## O=C(Nc1cnccn1)c1ccccc1O [Compound 1b]
[1]; 24 h
  MIC: > 500 µM
[1]; 48 h
  MIC: > 500 µM
[2]; CCM4517, 24 h
  MIC: > 500 µM
[2]; CCM4517, 48 h
  MIC: > 500 µM
other
  melting point: 209.9 to 211.5 °C
[3]
  MIC: > 100 µg/mL
[4]; 24 h
  MIC: > 500 µM
[4]; 48 h
  MIC: > 500 µM
[5]; [19]
  MIC: > 500 µM
[5]; [20]
  MIC: > 500 µM
[6]; [21]
  MIC: > 500 µM
[6]; [22]
  MIC: > 500 µM
[7]; E28, 24 h
  MIC: > 500 µM
[7]; E28, 48 h
  MIC: > 500 µM
[8]; [23]
  MIC: > 500 µM
[8]; [24]
  MIC: > 500 µM
[9]; [25]
  MIC: 500 µM (≈ 108 µg/mL)
[9]; [26]
  MIC: 500 µM (≈ 108 µg/mL)
[10]
  MIC: ≥ 500 µg/mL
[11]; ATCC44859, 24 h
  MIC: > 500 µM
[11]; ATCC44859, 48 h
  MIC: > 500 µM
[12]; SP.J14365/08, 24 h
  MIC: > 500 µM
[12]; SP.J14365/08, 48 h
  MIC: > 500 µM
[13]; [27]
  MIC: > 500 µM
[13]; [28]
  MIC: > 500 µM
[14]
  MIC: > 100 µg/mL
[15]; H6966/08, 24 h
  MIC: > 500 µM
[15]; H6966/08, 48 h
  MIC: > 500 µM
[16]; CCM1961, 72 h
  MIC: > 500 µM
[16]; CCM1961, 120 h
  MIC: > 500 µM
[17]; Candida tropicalis, 156, 24 h
  MIC: > 500 µM
[17]; Candida tropicalis, 156, 48 h
  MIC: > 500 µM
[18]
  MIC: > 100 µg/mL
